From patent US10329309B2, “3-(3H-imidazo[4,5-B]pyridin-2-yl)-1H-pyrazolo[4,3-B]pyridines and therapeutic uses thereof” (Samumed, LLC, priority 2015, dated 2019)

Columns and labels:
IL-6 (THP-1 cells) = experiment: Inhibition of IL-6 in LPS-stimulated THP-1 monocytes (HTRF); assay type: cell-based; conditions: Homo sapiens; for EC50: LPS 500 ng/mL, IL-6 by HTRF; for inhibition at 10 µM: LPS stimulated, IL-6, at 10 μM, read-out: percent inhibition at 10 μM (given for EC50 of >10 μM)
Procedure, shortened: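 IL-6 release was read as the HTRF 665/620 nm ratio after 22 h of 500 ng/mL LPS at 37 °C. Before stimulation, THP-1 cells kept 24 h in 1% FBS were exposed 2 h to a 10-point 1:3 compound series starting at 10 μM, in 0.1% DMSO. Four-parameter EC50s came from DMSO-normalized duplicates, with % inhibition at 10 μM reported beyond 10 μM.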

[1] = system: primary human fibroblasts derived from IPF patients (LL29 cells), α-smooth muscle actin (αSMA); experiment: Inhibition of the fibrotic process: TGF-β1-treated primary human fibroblasts from IPF patients, αSMA staining; assay type: cell-based; conditions: Fibroblast, 96 h, 4 days; for EC50: LL29 fibroblasts from IPF patients, TGF-β1 20 ng/mL, inhibition of fibrotic process; for inhibition at 10 µM: LL29 fibroblasts, TGF-β1 treated, read-out: percent inhibition at 10 μM (given for EC50 of >10 μM)
Procedure, shortened: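 Read-out: fraction of αSMA-positive cells by high-content imaging, SYTOX-stained dead cells excluded, normalized to TGF-β1/DMSO wells. Cells got compound (10 μM–[…], 11 points) plus TGF-β1 20 ng/mL for 4 days. EC50 from triplicate curves; above 10 μM, % inhibition at 10 μM given.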

| Structure (SMILES) | EC50 (IL-6 (THP-1 cells)) [nM] | inhibition at 10 µM (IL-6 (THP-1 cells)) [%] | EC50 [1] [nM] | inhibition at 10 µM [1] [%] |
| --- | --- | --- | --- | --- |
| CS(=O)(=O)NCc1cc(F)cc(-c2ccnc3[nH]c(-c4n[nH]c5ccc(-c6cncc(CNCc7ccccc7)c6)nc45)nc23)c1 [Compound 500, N-(3-(2-(5-(5-((Benzylamino)methyl)pyridin-3-yl)-1H-pyrazolo[4,3-b]pyridin-3-yl)-3H-imidazo[4,5-b]pyridin-7-yl)-5-fluorobenzyl)methanesulfonamide] | > 10000 | 45.6 | 9260 |  |
| COc1cccc(-c2ccnc3[nH]c(-c4n[nH]c5ccc(-c6cncc(NC(=O)C7CCCCC7)c6)nc45)nc23)c1 [Compound 1012, N-(5-(3-(7-(3-Methoxyphenyl)-3H-imidazo[4,5-b]pyridin-2-yl)-1H-pyrazolo [4,3-b]pyridin-5-yl)pyridin-3-yl)cyclohexanecarboxamide] | > 10000 | 43.3 | 1170 |  |
| Fc1cccc(-c2ccnc3[nH]c(-c4n[nH]c5ccc(C6=CCNCC6)nc45)nc23)c1 [Compound 506, 3-(7-(3-fluorophenyl)-3H-imidazo[4,5-b]pyridin-2-yl)-5-(1,2,3,6-tetrahydropyridin-4-yl)-1H-pyrazolo[4,3-b]pyridine] | > 10000 | 27.9 | > 10000 | 0 |
| CC(C)(C)CC(=O)Nc1cncc(-c2ccc3[nH]nc(-c4nc5c(-c6ccccc6F)ccnc5[nH]4)c3n2)c1 [Compound 72, N-(5-(3-(7-(2-fluorophenyl)-3H-imidazo[4,5-b]pyridin-2-yl)-1H-pyrazolo [4,3-b]pyridin-5-yl)pyridin-3-yl)-3,3-dimethylbutanamide] | > 10000 | 27.8 | > 10000 | 0 |
| CC(C)(C)C(=O)Nc1cncc(-c2ccc3[nH]nc(-c4nc5c(-c6ccc(Cl)s6)ccnc5[nH]4)c3n2)c1 [Compound 1043, N-(5-(3-(7-(5-chlorothiophen-2-yl)-3H-imidazo[4,5-b]pyridin-2-yl)-1H-pyrazolo [4,3-b]pyridin-5-yl)pyridin-3-yl)pivalamide] | > 10000 | 7.6 | 419 |  |
| O=C(Nc1cncc(-c2ccc3[nH]nc(-c4nc5c(-c6cccs6)ccnc5[nH]4)c3n2)c1)C1CC1 [Compound 356, N-(5-(3-(7-(Thiophen-2-yl)-3H-imidazo[4,5-b]pyridin-2-yl)-1H-pyrazolo [4,3-b]pyridin-5-yl)pyridin-3-yl)cyclopropanecarboxamide] | > 10000 | 38 | 4860 |  |
| CCCC(=O)Nc1cncc(-c2ccc3[nH]nc(-c4nc5c(-c6ccsc6)ccnc5[nH]4)c3n2)c1 [Compound 297, N-(5-(3-(7-(thiophen-3-yl)-3H-imidazo[4,5-b]pyridin-2-yl)-1H-pyrazolo[4,3-b]pyridin-5-yl)pyridin-3-yl)butyramide] | 9910 |  | 410 |  |
| NC1CN(c2cncc(-c3ccc4[nH]nc(-c5nc6c(-c7ccc(Cl)s7)ccnc6[nH]5)c4n3)n2)C1 [Compound 1068, 1-(6-(3-(7-(5-Chlorothiophen-2-yl)-3H-imidazo[4,5-b]pyridin-2-yl)-1H-pyrazolo[4,3-b]pyridin-5-yl)pyrazin-2-yl)azetidin-3-amine] | 1770 |  | 938 |  |
| CC(C)Nc1cncc(-c2ccc3[nH]nc(-c4nc5c(-c6ccoc6)ccnc5[nH]4)c3n2)c1 [Compound 320, 5-(3-(7-(furan-3-yl)-3H-imidazo[4,5-b]pyridin-2-yl)-1H-pyrazolo[4,3-b]pyridin-5-yl)-N-isopropylpyridin-3-amine] | 456 |  | 277 |  |
| O=C(Nc1cncc(-c2ccc3[nH]nc(-c4nc5c(-c6ccc(Cl)s6)ccnc5[nH]4)c3n2)c1)C1CCC1 [Compound 1056, N-(5-(3-(7-(5-chlorothiophen-2-yl)-3H-imidazo[4,5-b]pyridin-2-yl)-1H-pyrazolo [4,3-b]pyridin-5-yl)pyridin-3-yl)cyclobutanecarboxamide] | > 10000 | 40.6 | 284 |  |
| Fc1cccc(-c2ccnc3[nH]c(-c4n[nH]c5ccc(-c6cncc(OCCN7CCCC7)c6)nc45)nc23)c1 [Compound 514, 3-(7-(3-Fluorophenyl)-3H-imidazo[4,5-b]pyridin-2-yl)-5-(5-(2-(pyrrolidin-1-yl)ethoxy)pyridin-3-yl)-1H-pyrazolo[4,3-b]pyridine] | > 10000 | 49.5 | > 10000 | 0 |
| CCCCC(=O)Nc1cncc(-c2ccc3[nH]nc(-c4nc5c(-c6ccoc6)ccnc5[nH]4)c3n2)c1 [Compound 327, N-(5-(3-(7-(furan-3-yl)-3H-imidazo[4,5-b]pyridin-2-yl)-1H-pyrazolo[4,3-b]pyridin-5-yl)pyridin-3-yl)pentanamide] | > 10000 | 42.4 | 277 |  |

Second part, led by results:

| EC50 (IL-6 (THP-1 cells)) [nM] | Structure (SMILES) | inhibition at 10 µM (IL-6 (THP-1 cells)) [%] | EC50 [1] [nM] | inhibition at 10 µM [1] [%] |
| --- | --- | --- | --- | --- |
| > 10000 | c1cncc(-c2ccc3[nH]nc(-c4nc5c(-c6cccnc6)ccnc5[nH]4)c3n2)c1 [Compound 88, 5-(pyridin-3-yl)-3-(7-(pyridin-3-yl)-3H-imidazo[4,5-b]pyridin-2-yl)-1H-pyrazolo [4,3-b]pyridine] | 36.6 | 747 |  |
| 9880 | Cc1ccncc1-c1ccc2[nH]nc(-c3nc4c(-c5ccsc5)ccnc4[nH]3)c2n1 [Compound 285, 5-(4-methylpyridin-3-yl)-3-(7-(thiophen-3-yl)-3H-imidazo[4,5-b]pyridin-2-yl)-1H-pyrazolo[4,3-b]pyridine] |  | 2050 |  |
| > 10000 | O=C(Nc1cncc(-c2ccc3[nH]nc(-c4nc5c(-c6ccsc6)ccnc5[nH]4)c3n2)c1)c1ccccc1 [Compound 291, N-(5-(3-(7-(Thiophen-3-yl)-3H-imidazo[4,5-b]pyridin-2-yl)-1H-pyrazolo [4,3-b]pyridin-5-yl)pyridin-3-yl)benzamide] | 21 | > 10000 | 42.5 |
| 1540 | Oc1cncc(-c2ccc3[nH]nc(-c4nc5c(-c6cccc(F)c6)ccnc5[nH]4)c3n2)c1 [Compound 517, 5-(3-(7-(3-fluorophenyl)-3H-imidazo[4,5-b]pyridin-2-yl)-1H-pyrazolo[4,3-b]pyridin-5-yl)pyridin-3-ol] |  | 1150 |  |
| 424 | CC(C)Nc1cncc(-c2ccc3[nH]nc(-c4nc5c(-c6cccnc6)ccnc5[nH]4)c3n2)c1 [Compound 96, N-isopropyl-5-(3-(7-(pyridin-3-yl)-3H-imidazo[4,5-b]pyridin-2-yl)-1H-pyrazolo[4,3-b]pyridin-5-yl)pyridin-3-amine] |  | 1760 |  |
| > 10000 | Fc1cccc(-c2ccnc3[nH]c(-c4n[nH]c5ccc(-c6cnccn6)nc45)nc23)c1 [Compound 520, 3-(7-(3-fluorophenyl)-3H-imidazo[4,5-b]pyridin-2-yl)-5-(pyrazin-2-yl)-1H-pyrazolo[4,3-b]pyridine] | 19.5 | 5330 |  |
| 8230 | COc1cncc(-c2ccc3[nH]nc(-c4nc5c(-c6cccc(F)c6)ccnc5[nH]4)c3n2)c1 [Compound 516, 3-(7-(3-fluorophenyl)-3H-imidazo[4,5-b]pyridin-2-yl)-5-(5-methoxypyridin-3-yl)-1H-pyrazolo[4,3-b]pyridine] |  | 1580 |  |
